Test system: 5/6 Nephrectomy induced chronic kidney disease (CKD) in rat
Assay: 5/6 Nephrectomy induced chronic kidney disease in rat: IS and PCS blood level, mortality
Type: in vivo, Wistar rats (Rattus norvegicus)
Conditions: for IS Mean: Indoxyl Sulphate blood level, disease control 7.33; for IS Mean / PCS Mean: p.o. daily for 13 weeks; for PCS Mean: P-Cresyl Sulphate blood level, disease control 1.13; for IS % Decreased: decrease in Indoxyl Sulphate blood level compared to disease control; for IS % Decreased / PCS % Decreased: p.o. daily 13 weeks; for PCS % Decreased: decrease in P-Cresyl Sulphate blood level compared to disease control
Protocol: The effect of the compositions of the present invention and other test and reference compositions was studied in animals. For this study, screening effect of synergistic combination or composition/formulation comprising Inulin and other active ingredients against 5/6 Nephrectomy induced chronic kidney disease (CKD) in rat was performed. The following trials were carried out:
Eighty Four (84) female rats (Wistar rats (Rattus norvegicus)) divided into 14 groups (6 per group) were maintained in animal house in a light/dark atmosphere based on a 12 hour cycle having temperature and relative humidity in the range of 19 to 25±2° C. and 30-70%, respectively. To maintain the appropriate conditions, temperature and relative humidity were recorded three times daily. All animals were acclimatized for a minimum period of five days. Animals were maintained in the test setup for minimum 30 minutes once during the acclimatization period to reduce the stress. Animals were weighed on the day of receipt and observed daily for abnormalities if any. Detailed records of acclimatization were also maintained. Rats were housed 3 per cage in clean, sterilized Polypropylene cages. During complete experiment, animals were supplied with the standard certified rat pellet feed and drinking water treated by the reverse osmosis ad libitum.
In order to evaluate the activity against chronic kidney disease, eighty four (84) rats were screened and divided into Fourteen (14) groups. For a comparative analysis, groups were divided as normal control (Group 1 (G1)), sham Control (Group 2 (G2)), disease control (Group 3 (G3)), treatment groups with individual components (Group 4 (G4), Group 5 (G5) and Group 6 (G6) as Inulin, Betaine and Resistant Starch respectively), test composition (Group 7 (G7) to Group 11 (G11) (Combination of Inulin with Betaine at different dose level), test composition Group 12 (G12) to Group 13 (G13) (Combination of Inulin, Betaine and Resistant Starch) and reference standard (Group 14 (G14)) (Activated Charcoal). Table 1 provides the details of the various groups and treatments conducted in the trial wherein G4 to G14 are treatment groups. Experiment was carried out for 3 months in two stages.
The animals under consideration were examined for a study period of 13 weeks and two-stage surgical procedure for kidney ligation and removal were performed.
Stage one: A ventral midline incision into the abdomen was made to expose the animal's left kidney and the organ was freed from the surrounding tissue. A piece of suture was placed and ligated around each pole of the kidney at its one-third position. The one-third kidney on each pole was excised beyond the ligatures and the abdominal incision was closed.
Stage two: This procedure was performed 7 days after stage one. The animals were placed in ventral recumbency and an incision was made parallel to the midline. The abdominal cavity was entered, and the right kidney was made free from the surrounding tissue. The kidney was gently pulled out from the incision and the adrenal gland was freed and replaced into the abdominal cavity. The renal blood vessels and the ureter were ligated or cauterized. The kidney was then removed by transecting the vessels and ureter just distal to the ligature or cauterized section. The skin incision was closed with wound clips.
Treatment: All treatment groups were treated on daily basis for 13 weeks after stage two of surgery. Blood collection and biochemistry analysis were done after completion of the treatment of all treated groups at the end of 13th week treatment.

| Compound | IS Mean | PCS Mean | IS % Decreased | PCS % Decreased |
| --- | --- | --- | --- | --- |
| C[N+](C)(C)CC(=O)O [Betaine] | 7.01 mg/L | 1.09 mg/L | 4.37% | 3.54% |
| Inulin | 5.55 mg/L | 0.84 mg/L | 24.29% | 25.66% |
| Resistant Starch [RS] | 6.5 mg/L | 1.01 mg/L | 11.33% | 10.62% |

Reference: patent US12048713B2, “Pharmaceutical composition for reducing protein bound uremic toxins” (Frimline Private Limited, priority 2020, dated 2024)
